The values below are quoted from earlier work in US7273889B2, “NMDA receptor antagonist formulation with reduced neurotoxicity” (Innovative Drug Delivery Systems, Inc., priority 2002, dated 2007).

Where a name gives a salt, the structure may show the parent alone.

For one data set, the system named is patients. The conditions noted are these: use as an anesthetic agent.
In data set [1] the test system is spinal cord of the animals. The conditions noted are these: multiple dose, intrathecally administered.
For data set [2] the following is noted: at a pH up to 10.

On to `CNC1(c2ccccc2Cl)CCCCC1=O` (stereo not drawn) [ketamine hydrochloride], for which, in the data set with patients, the “occurrence of postoperative confusional states (emergence reactions)” value is listed as “approximately 12% of patients”.

Take `CNC1(c2ccccc2Cl)CCCCC1=O` (stereo not drawn) [preservative-free ketamine, ketamine]: the neurotoxic effect entry in data set [1] is on record as “without neurotoxic effect”. benzalkonium chloride: in data set [2], the stability result is on record as “stable at room temperature”.
